Measured values reported in ChEMBL document CHEMBL1201862, “PubChem BioAssay data set” (2004).
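Five compound concentrations were applied to cells in 96-well plates for 48 hours; endpoints were derived by simple linear interpolation of the resulting dose-response curve. The concentration for 50% growth inhibition is given as GI50.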 Calls of active or inactive are those of the source. No stated cut-off is given here; in the data, active = GI50 up to about 1.1 µM and inactive = higher.

Assays:
Assay in all cases: DTP human tumour cell line panel, 48 h
786-0 = tested on: 786-0
A498 = tested on: A498
A549 = tested on: A549
ACHN = tested on: ACHN
BT-549 = tested on: BT-549
CAKI-1 = tested on: CAKI-1
CCRF-CEM = tested on: CCRF-CEM
COLO 205 = tested on: COLO 205
DU-145 = tested on: DU-145
EKVX = tested on: EKVX
HCC 2998 = tested on: HCC 2998
HCT-116 = tested on: HCT-116
HCT-15 = tested on: HCT-15
HL-60 = tested on: HL-60
HOP-62 = tested on: HOP-62
HOP-92 = tested on: HOP-92
HT-29 = tested on: HT-29
Hs-578T = tested on: Hs-578T
IGROV-1 = tested on: IGROV-1
K562 = tested on: K562
KM12 = tested on: KM12
LOX IMVI = tested on: LOX IMVI
M14 = tested on: M14
MCF7 = tested on: MCF7
MDA-MB-231 = tested on: MDA-MB-231
MDA-MB-435 = tested on: MDA-MB-435
MDA-N = tested on: MDA-N
MOLT-4 = tested on: MOLT-4
Malme-3M = tested on: Malme-3M
NCI-H226 = tested on: NCI-H226
NCI-H23 = tested on: NCI-H23
NCI-H460 = tested on: NCI-H460
NCI-H522 = tested on: NCI-H522
NCI/ADR-RES = tested on: NCI/ADR-RES
OVCAR-3 = tested on: OVCAR-3
OVCAR-4 = tested on: OVCAR-4
OVCAR-5 = tested on: OVCAR-5
OVCAR-8 = tested on: OVCAR-8
PC-3 = tested on: PC-3
RPMI-8226 = tested on: RPMI-8226
SF-268 = tested on: SF-268
SF-295 = tested on: SF-295
SF-539 = tested on: SF-539
SK-MEL-28 = tested on: SK-MEL-28
SK-MEL-2 = tested on: SK-MEL-2
SK-MEL-5 = tested on: SK-MEL-5
SN12C = tested on: SN12C
SNB-19 = tested on: SNB-19
SNB-75 = tested on: SNB-75
SR = tested on: SR
SW-620 = tested on: SW-620
TK-10 = tested on: TK-10
U-251 = tested on: U-251
UACC-257 = tested on: UACC-257
UO-31 = tested on: UO-31
RXF 393 = tested on: RXF 393
SK-OV-3 = tested on: SK-OV-3
T47D = tested on: T47D
UACC-62 = tested on: UACC-62

With `Nc1ncnc2c1ncn2C1OC(CO)C(O)C(O)C1O` (stereo unspecified) the GI50 (786-0) was > 100 µM (inactive), the GI50 (A498) was > 100 µM (inactive) and the GI50 (A549) was > 100 µM (inactive). The GI50 (ACHN) was > 100 µM (inactive), the GI50 (BT-549) was > 100 µM (inactive) and the GI50 (CAKI-1) was > 100 µM (inactive). The GI50 (CCRF-CEM) was > 100 µM (inactive), the GI50 (COLO 205) was > 100 µM (inactive) and the GI50 (DU-145) was > 100 µM (inactive). For the same compound, the GI50 (EKVX) was > 100 µM (inactive), the GI50 (HCC 2998) was > 100 µM (inactive) and the GI50 (HCT-116) was > 100 µM (inactive). For the same compound, the GI50 (HCT-15) was greater than 100 µM, the GI50 (HL-60) was > 100 µM (inactive) and the GI50 (HOP-62) was > 100 µM (inactive). The GI50 (HOP-92) was > 100 µM (inactive), the GI50 (HT-29) was > 100 µM (inactive) and the GI50 (Hs-578T) was > 100 µM (inactive). The GI50 (IGROV-1) was > 100 µM (inactive), the GI50 (K562) was > 100 µM (inactive) and the GI50 (KM12) was > 100 µM (inactive). For the same compound, the GI50 (LOX IMVI) was > 100 µM (inactive), the GI50 (M14) was > 100 µM (inactive) and the GI50 (MCF7) was > 100 µM (inactive). For the same compound, the GI50 (MDA-MB-231) was > 100 µM (inactive), the GI50 (MDA-MB-435) was > 100 µM (inactive) and the GI50 (MDA-N) was > 100 µM (inactive). The GI50 (MOLT-4) was > 100 µM (inactive), the GI50 (Malme-3M) was > 100 µM (inactive) and the GI50 (NCI-H226) was > 100 µM (inactive). For the same compound, the GI50 (NCI-H23) was > 100 µM (inactive), the GI50 (NCI-H460) was > 100 µM (inactive) and the GI50 (NCI-H522) was > 100 µM (inactive). For the same compound, the GI50 (NCI/ADR-RES) was > 100 µM (inactive), the GI50 (OVCAR-3) was > 100 µM (inactive) and the GI50 (OVCAR-4) was > 100 µM (inactive). For the same compound, the GI50 (OVCAR-5) was > 100 µM (inactive), the GI50 (OVCAR-8) was > 100 µM (inactive) and the GI50 (PC-3) was > 100 µM (inactive). The GI50 (RPMI-8226) was > 100 µM (inactive), the GI50 (SF-268) was > 100 µM (inactive) and the GI50 (SF-295) was > 100 µM (inactive). For the same compound, the GI50 (SF-539) was > 100 µM (inactive), the GI50 (SK-MEL-28) was > 100 µM (inactive) and the GI50 (SK-MEL-2) was > 100 µM (inactive). The GI50 (SK-MEL-5) was > 100 µM (inactive), the GI50 (SN12C) was > 100 µM (inactive) and the GI50 (SNB-19) was > 100 µM (inactive). For the same compound, the GI50 (SNB-75) was > 100 µM (inactive), the GI50 (SR) was > 100 µM (inactive) and the GI50 (SW-620) was > 100 µM (inactive). For the same compound, the GI50 (TK-10) was > 100 µM (inactive), the GI50 (U-251) was > 100 µM (inactive) and the GI50 (UACC-257) was > 100 µM (inactive). The GI50 (UO-31) was > 100 µM (inactive).
In the case of `Oc1ccc([I+]c2ccccc2)cc1O`, the GI50 (786-0) is reported as 65 µM (inactive), the GI50 (A498) is reported as > 100 µM (inactive) and the GI50 (A549) is reported as 24.9 µM (inactive). For the same compound, the GI50 (ACHN) was 36.8 µM (inactive), the GI50 (BT-549) was 8.36 µM (inactive) and the GI50 (CAKI-1) was > 100 µM (inactive). For the same compound, the GI50 (CCRF-CEM) was 9.46 µM (inactive), the GI50 (COLO 205) was 34.4 µM (inactive) and the GI50 (DU-145) was 57.8 µM (inactive). For the same compound, the GI50 (EKVX) was 53.3 µM (inactive), the GI50 (HCC 2998) was 23.9 µM (inactive) and the GI50 (HCT-116) was 34.4 µM (inactive). For the same compound, the GI50 (HCT-15) was 27.7 µM, the GI50 (HL-60) was 16 µM (inactive) and the GI50 (HOP-62) was 34.2 µM (inactive). The GI50 (HOP-92) was 0.0583 µM (active), the GI50 (HT-29) was 37.4 µM (inactive) and the GI50 (Hs-578T) was 48.6 µM (inactive). For the same compound, the GI50 (IGROV-1) was 29.7 µM (inactive), the GI50 (K562) was 21.6 µM (inactive) and the GI50 (KM12) was 24.8 µM (inactive). The GI50 (LOX IMVI) was 30.3 µM (inactive), the GI50 (MCF7) was > 10 µM (inactive) and the GI50 (MDA-MB-231) was 46.7 µM (inactive). The GI50 (MDA-MB-435) was 23 µM (inactive), the GI50 (MDA-N) was 35.3 µM (inactive) and the GI50 (MOLT-4) was 21.9 µM (inactive). The GI50 (Malme-3M) was 28.8 µM (inactive), the GI50 (NCI-H226) was > 100 µM (inactive) and the GI50 (NCI-H23) was 26.3 µM (inactive). The GI50 (NCI-H460) was 23.3 µM (inactive), the GI50 (NCI-H522) was 17.8 µM (inactive) and the GI50 (NCI/ADR-RES) was 28.9 µM (inactive). The GI50 (OVCAR-3) was 28.1 µM (inactive), the GI50 (OVCAR-4) was 25.8 µM (inactive) and the GI50 (OVCAR-5) was 59.6 µM (inactive). For the same compound, the GI50 (OVCAR-8) was 53.3 µM (inactive), the GI50 (PC-3) was 22.3 µM (inactive) and the GI50 (RPMI-8226) was 12 µM (inactive). For the same compound, the GI50 (RXF 393) was 52.2 µM (inactive), the GI50 (SF-268) was 42.8 µM (inactive) and the GI50 (SF-295) was 73.8 µM (inactive). For the same compound, the GI50 (SF-539) was 29.2 µM (inactive), the GI50 (SK-MEL-28) was 61.9 µM (inactive) and the GI50 (SK-MEL-5) was 36 µM (inactive). The GI50 (SN12C) was 40.5 µM (inactive), the GI50 (SNB-19) was 26.2 µM (inactive) and the GI50 (SNB-75) was 95.1 µM (inactive). The GI50 (SR) was 19.1 µM (inactive), the GI50 (SW-620) was 18.1 µM (inactive) and the GI50 (TK-10) was > 100 µM (inactive). For the same compound, the GI50 (U-251) was 17.4 µM (inactive), the GI50 (UACC-257) was > 100 µM (inactive) and the GI50 (UO-31) was 2.51 µM (inactive).
`COc1ccc2nc3cc(Cl)ccc3c(NCCCN(Cc3cc(OC)c(OC)c(OC)c3)Cc3cc(OC)c(OC)c(OC)c3)c2c1` was tested, and the GI50 (786-0) was 12.1 µM (inactive), the GI50 (A549) was 14.6 µM (inactive) and the GI50 (ACHN) was 11.7 µM (inactive). The GI50 (BT-549) was 14.1 µM (inactive), the GI50 (CAKI-1) was 14.4 µM (inactive) and the GI50 (COLO 205) was 4.3 µM (inactive). For the same compound, the GI50 (DU-145) was 12.8 µM (inactive), the GI50 (EKVX) was 13.5 µM (inactive) and the GI50 (HCC 2998) was 14.3 µM (inactive). The GI50 (HCT-116) was 0.174 µM (active), the GI50 (HCT-15) was greater than 10 µM and the GI50 (HOP-62) was 4.65 µM (inactive). The GI50 (HOP-92) was 10.1 µM (inactive), the GI50 (HT-29) was 2.31 µM (inactive) and the GI50 (Hs-578T) was 8.55 µM (inactive). The GI50 (IGROV-1) was 15.3 µM (inactive), the GI50 (K562) was 1.19 µM (inactive) and the GI50 (KM12) was 13.8 µM (inactive). The GI50 (M14) was 1.78 µM (inactive), the GI50 (MCF7) was 13.6 µM (inactive) and the GI50 (MDA-MB-231) was < 0.01 µM (active). For the same compound, the GI50 (MDA-MB-435) was > 10 µM (inactive), the GI50 (MOLT-4) was 1.34 µM (inactive) and the GI50 (Malme-3M) was 17.7 µM (inactive). For the same compound, the GI50 (NCI-H226) was 14 µM (inactive), the GI50 (NCI-H23) was > 10 µM (inactive) and the GI50 (NCI-H460) was 6.84 µM (inactive). The GI50 (NCI-H522) was 9.48 µM (inactive), the GI50 (NCI/ADR-RES) was 23.4 µM (inactive) and the GI50 (OVCAR-3) was 19 µM (inactive). The GI50 (OVCAR-5) was 13.3 µM (inactive), the GI50 (OVCAR-8) was 12.1 µM (inactive) and the GI50 (PC-3) was 10.4 µM (inactive). The GI50 (RPMI-8226) was 3.07 µM (inactive), the GI50 (RXF 393) was 3.38 µM (inactive) and the GI50 (SF-268) was 13.5 µM (inactive). For the same compound, the GI50 (SF-295) was 3.33 µM (inactive), the GI50 (SF-539) was 2.2 µM (inactive) and the GI50 (SK-MEL-28) was 16.4 µM (inactive). The GI50 (SK-MEL-2) was 25.1 µM (inactive), the GI50 (SK-MEL-5) was 1.29 µM (inactive) and the GI50 (SK-OV-3) was 17.1 µM (inactive). The GI50 (SN12C) was 16.8 µM (inactive), the GI50 (SNB-19) was 17.4 µM (inactive) and the GI50 (SR) was 2.31 µM (inactive). The GI50 (SW-620) was 1.14 µM (inactive), the GI50 (T47D) was 23 µM (inactive) and the GI50 (TK-10) was 23.1 µM (inactive). For the same compound, the GI50 (U-251) was 4.32 µM (inactive), the GI50 (UACC-257) was 13.9 µM (inactive) and the GI50 (UACC-62) was 18.4 µM (inactive). For the same compound, the GI50 (UO-31) was 10.6 µM (inactive).
